# Source: patent US20230059136A1, “THE COMPOUNDS AND COMPOSITIONS FOR TREATING CONDITIONS ASSOCIATED WITH NLRP ACTIVITY” (Novartis AG, priority 2018, published 2023)
# Like-named read-outs stand apart in the source and are kept apart here.
# Test system: IL-1β production in PMA-differentiated THP-1 cells
# Assay: IL-1β production in PMA-differentiated THP-1 cells stimulated with gramicidin (hTHP-1 assay containing 2% fetal bovine serum)
# Assay type: cell-based, human
# Method: Procedure 1: IL-1β Production in PMA-Differentiated THP-1 Cells Stimulated with Gramicidin.
# THP-1 cells were purchased from the American Type Culture Collection and sub-cultured according to instructions from the supplier. Cells were cultured in complete RPMI 1640 (containing 10% heat inactivated FBS, penicillin (100 units/ml) and streptomycin (100 μg/ml)), and maintained in log phase prior to experimental setup. Prior to the experiment, compounds were dissolved in dimethyl sulfoxide (DMSO) to generate a 30 mM stock. The compound stock was first pre-diluted in DMSO to 3, 0.34, 0.042 and 0.0083 mM intermediate concentrations and subsequently spotted using Echo550 liquid handler into an empty 384-well assay plate to achieve desired final concentration (e.g. 100, 33, 11, 3.7, 1.2, 0.41, 0.14, 0.046, 0.015, 0.0051, 0.0017 μM). DMSO was backfilled in the plate to achieve a final DMSO assay concentration of 0.37%. The plate was then sealed and stored at room temperature until required.
# THP-1 cells were treated with PMA (Phorbol 12-myristate 13-acetate) (20 ng/ml) for 16-18 hours. On the day of the experiment the media was removed and adherent cells were detached with trypsin for 5 minutes. Cells were then harvested, washed with complete RPMI 1640, spun down, and resuspended in RPMI 1640 (containing 2% heat inactivated FBS, penicillin (100 units/ml) and streptomycin (100 μg/ml). The cells were plated in the 384-well assay plate containing the spotted compounds at a density of 50,000 cells/well (final assay volume 50 μl). Cells were incubated with compounds for 1 hour and then stimulated with gramicidin (5 μM) (Enzo) for 2 hours. Plates were then centrifuged at 340 g for 5 min. Cell free supernatant (40 μL) was collected using a 96-channel PlateMaster (Gilson) and the production of IL-1β was evaluated by HTRF (cisbio). The plates were incubated for 18 h at 4° C. and read using the preset HTRF program (donor emission at 620 nm, acceptor emission at 668 nm) of the SpectraMax i3x spectrophotometer (Molecular Devices, software SoftMax 6). A vehicle only control and a dose titration of CRID3 (100-0.0017 μM) were run concurrently with each experiment.
# Procedure 2: IL-1β Production in PMA-Differentiated THP-1 Cells Stimulated with Gramicidin.
# THP-1 cells were purchased from the American Type Culture Collection and sub-cultured according to instructions from the supplier. Prior to experiments, cells were cultured in complete RPMI 1640 (containing 10% heat inactivated FBS, penicillin (100 units/ml) and streptomycin (100 μg/ml)), and maintained in log phase prior to experimental setup. Prior to the experiment THP-1 were treated with PMA (Phorbol 12-myristate 13-acetate) (20 ng/ml) for 16-18 hours. Compounds were dissolved in dimethyl sulfoxide (DMSO) to generate a 30 mM stock. On the day of the experiment the media was removed and adherent cells were detached with trypsin for 5 minutes. Cells were then harvested, washed with complete RPMI 1640, spun down, resuspended in RPMI 1640 (containing 2% heat inactivated FBS, penicillin (100 units/ml) and streptomycin (100 μg/ml). The cells were plated in a 384-well plate at a density of 50,000 cells/well (final assay volume 50 μl). Compounds were first dissolved in assay medium to obtain a 5× top concentration of 500 μM. 10 step dilutions (1:3) were then undertaken in assay medium containing 1.67% DMSO. 5× compound solutions were added to the culture medium to achieve desired final concentration (e.g. 100, 33, 11, 3.7, 1.2, 0.41, 0.14, 0.046, 0.015, 0.0051, 0.0017 μM). Final DMSO concentration was at 0.37%. Cells were incubated with compounds for 1 hour and then stimulated with gramicidin (5 μM) (Enzo) for 2 hours. Plates were then centrifuged at 340 g for 5 min. Cell free supernatant (40 μL) was collected using a 96-channel PlateMaster (Gilson) and the production of IL-1β was evaluated by HTRF (cisbio). A vehicle only control and a dose titration of CRID3 (100-0.0017 μM) were run concurrently with each experiment. […]
# [1] = Homo sapiens, THP-1, Table B1, 2% fetal bovine serum, class symbols, read-out: hTHP-1 IC50 (Average IC50 of compounds in hTHP-1 assay)
IC50 [1] [nM],also measured,SMILES
200 to 1000,–,"CCc1cc2c(c(C(C)C)c1CC(=O)N=S(N)(=O)c1cc(C(C)(C)O)cs1)COC2 (single isomer, unassigned) [Example 295, (R) or (S)-N-(amino(4-(2-hydroxypropan-2-yl)thiophen-2-yl)(oxo)-λ^6-sulfaneylidene)-2-(6-ethyl-4-isopropyl-1,3-dihydroisobenzofuran-5-yl)acetamide]"
–,"IC50 (Homo sapiens, THP-1, read-out: hTHP-1 IC50 in 2% FBS, average IC50, hTHP-1 assay containing 2% fetal bovine serum): 5000 to 30000 nM","Cc1cc(C(F)(F)F)cc(O)c1CC(=O)N=S(N)(=O)c1ccccc1 (stereo not drawn) [Example 404, N-(amino(oxo)(phenyl)-λ^6-sulfaneylidene)-2-(2-hydroxy-6-methyl-4-(trifluoromethyl)phenyl)acetamide]"
–,"IC50 (Homo sapiens, THP-1, Table B2, 2% fetal bovine serum, cells printed as numeric bound, read-out: hTHP-1 IC50 (Average IC50 of compounds in hTHP-1 assay)): > 30000 nM","COc1cc(-c2cccc(C(C)C)c2CC(=O)N=S(=O)(NC(N)=O)c2cnc([C@@](C)(O)CO)s2)ccn1 (stereo partly drawn) [Example 354, N-((2-((S)-1,2-dihydroxypropan-2-yl)thiazol-5-yl)(oxo)(ureido)-λ^6-sulfaneylidene)-2-(2-isopropyl-6-(2-methoxypyridin-4-yl)phenyl)acetamide]"
1000 to 5000,–,"CC(C)(O)c1ncc(S(N)(=O)=NC(=O)Cc2c3c(cc4c2CC4)CCC3)s1 (stereo not drawn) [Example 222, N-(amino(2-(2-hydroxypropan-2-yl)thiazol-5-yl)(oxo)-λ^6-sulfaneylidene)-2-(2,4,5,6-tetrahydro-1H-cyclobuta[f]inden-3-yl)acetamide]"
–,"IC50 (Table B1, 2% fetal bovine serum, class symbols, read-out: hTHP-1 IC50 (Average IC50 of compounds in hTHP-1 assay)): 40 to 200 nM","CC(C)c1cc(-c2ccc3c(c2)OC(F)(F)O3)cc(C(C)C)c1CC(=O)N=S(N)(=O)c1ncc(C(C)(C)O)s1 (single isomer, unassigned) [Example 166, (R) or (S)-N-(amino(5-(2-hydroxypropan-2-yl)thiazol-2-yl)(oxo)-λ^6-sulfaneylidene)-2-(4-(2,2-difluorobenzo[d] [1,3]dioxol-5-yl)-2,6-diisopropylphenyl) acetamide]"
–,"IC50 (Table B2, 2% fetal bovine serum, class symbols, read-out: hTHP-1 IC50 (Average IC50 of compounds in hTHP-1 assay)): 5000 to 30000 nM","CC(C)c1cc(F)cc(C(C)C)c1CC(=O)N=S(N)(=O)c1sc(C(C)(C)O)nc1CO (racemic) [Example 357, (R) and (S)—N-(amino(4-(hydroxymethyl)-2-(2-hydroxypropan-2-yl)thiazol-5-yl)(oxo)-λ^6-sulfaneylidene)-2-(4-fluoro-2,6-diisopropylphenyl)acetamide]"
200 to 1000,–,"CC(C)c1ccc(F)c(C(C)C)c1CC(=O)N=S(N)(=O)c1ccc(C(C)(C)O)s1 (stereo not drawn) [Example 125, N-(amino(5-(2-hydroxypropan-2-yl)thiophen-2-yl)(oxo)-λ^6-sulfaneylidene)-2-(3-fluoro-2,6-diisopropylphenyl)acetamide]"
1000 to 5000,–,"CC(C)c1cc(C(F)F)nc(C(C)C)c1CC(=O)N=S(N)(=O)c1sc(CN(C)C)cc1F (stereo not drawn) [Example 248, N-(amino(5-((dimethylamino)methyl)-3-fluorothiophen-2-yl)(oxo)-λ^6-sulfaneylidene)-2-(6-(difluoromethyl)-2,4-diisopropylpyridin-3-yl)acetamide]"
–,"IC50 (Homo sapiens, THP-1, Table B2, 2% fetal bovine serum, class symbols, read-out: hTHP-1 IC50 (Average IC50 of compounds in hTHP-1 assay)): 40 to 200 nM","CC(C)c1cc(C#N)cc(C(C)C)c1CC(=O)N=S(=O)(NC#N)c1sc(C(C)(C)O)nc1CO (single isomer, unassigned) [Example 358]"
200 to 1000,–,"CC(C)c1cc(F)cc(C(C)C)c1CC(=O)NS(=N)(=O)c1ncc(C(C)(C)O)s1 (single isomer, unassigned) [Example 9]"
40 to 200,–,"CC(C)c1ccc(F)c(C(C)C)c1CC(=O)N=S(N)(=O)c1cc(C(C)(C)O)cs1 (stereo not drawn) [Example 106, N-(ainino(4-(2-hydroxypropan-2-yl)thiophen-2-yl)(oxo)-λ^6-sulfaneylidene)-2-(3-fluoro-2,6-diisopropylphenyl)acetamide]"
–,"IC50 (Homo sapiens, THP-1, Table B1, 2% fetal bovine serum, cells printed as numeric bound, read-out: hTHP-1 IC50 (Average IC50 of compounds in hTHP-1 assay)): > 30000 nM","CC(C)c1cc2c(c(C(C)C)c1CC(=O)N=S(N)(=O)c1sc(CN(C)C)cc1F)COC2 (single isomer, unassigned) [Example 308, (S) or (R)-N-(amino(5-((dimethylamino)methyl)-3-fluorothiophen-2-yl)(oxo)-λ^6-sulfaneylidene)-2-(4,6-diisopropyl-1,3-dihydroisobenzofuran-5-yl)acetamide]"
